These results are taken from article PMC9290002, “Development of Urea-Bond-Containing Michael Acceptors as Antitrypanosomal Agents Targeting Rhodesain” (ACS Medicinal Chemistry Letters, 2022).

Like-named read-outs stand apart in the source and are kept apart here.

Assay [1] has as its target T1, rhodesain (Trypanosoma brucei rhodesiense, UniProt Q95PM0). Particulars: cited from earlier work; for RD, k2nd: Figure 1.
Assay [2] concerns BSF of T.b. More on the design: method as in PMID 19620707. To be noted: bloodstream form; Figure 1; cited from earlier work.
Assay [3] has as its system T. b. brucei. More on the design: method as in PMID 31714776, PMID 28763614. To be noted: Figure 1; cited from earlier work.
Assay [4] has as its target T1, rhodesain. The experiment in a line: Rhodesain fluorogenic enzyme assay (Cbz-Phe-Arg-AMC). Format: biochemical. Particulars: for Ki: dissociation constant of noncovalent E·I complex, corrected to zero substrate concentration; for Rhodesain k2nd: k2nd = kinact/Ki.
For assay [5], the system named is T. b. brucei. The experiment in a line: Antitrypanosomal activity against cultured T. b. brucei (ATPlite assay). Format: cell-based. Particulars: Trypanosoma brucei, 24 h. How it is done:
All the urea derivatives were tested against cultured T. b. brucei, which expresses rhodesain similarly to T. b. rhodesiense. […] The difference in terms of rhodesain inhibition and antitrypanosomal activity observed for 1 could be due to its poor cell membrane permeability. In fact, we assume that the presence of substituents on the phenyl ring at the P3 position, as well as the extension of the aromatic region, could influence the crossing of cell membranes.
EC50 values for the antitrypanosomal activity were determined using the ATPlite assay as previously

Assay [6] addresses human cathepsin L (hCatL) (Homo sapiens, UniProt P07711). In words: Enzyme assay towards hCatL. The class given is biochemical.
In assay [7] the target is T2, main protease (Mpro) of SARS-CoV-2 (Severe acute respiratory syndrome coronavirus 2, UniProt P0DTD1).
T2 construct: the main protease (M^pro) of SARS-CoV-2
In words: Enzyme assay towards SARS-CoV-2 Mpro, preliminary screening. To be noted: preliminary screening at 100 μM; read-out: SARS-CoV-2 Mpro percentage of inhibition. The class given is biochemical. On the procedure:
In light of this, dilution assays characterizing the mode of inhibition were not performed. Since poor inhibition was shown by the Phe-containing analogues, the Leu derivatives 25 and 26 were not tested against SARS-CoV-2 M^pro.
In all the manipulations regarding the biological evaluation, no unexpected or unusually high safety hazards […]
Enzyme assays towards rhodesain.
The biological activity against rhodesain was evaluated by fluorescence-based assays and all tested compounds were diluted in DMSO. Rhodesain was recombinantly expressed as previously reported2,3 and Cbz-Phe-Arg-AMC (10 µM) was used as the fluorogenic substrate. In the preliminary screening at 0.1 µM, the substrate hydrolysis was determined over a period of 10 min at rt and fluorescence intensity was measured every 30 seconds, whereas the kinetic parameters after the dilutions were determined over a period of 30 min. The assay buffer (pH 5.5) contains 50 mM of sodium acetate, 5 mM of EDTA, 200 mM of NaCl, and 0.005% of Brij 35. Enzyme buffer (pH 5.5) contains 5 mM of DTT and the same chemicals used for assay buffer, with exception of Brij 35. Each independent assay was carried-out twice in duplicate using 96-well-plates in a final volume of 200 µL. Infinity 200 PRO microplate (Tecan, Männedorf, Switzerland) was employed as the fluorescence reader, and a 380 nm excitation filter and a 460 nm emission filter were used.
The first-order inactivation rate costants (k obs) were determined analyzing the progress curves by nonlinear regression analysis using the equation 1 shown in the Chart S1. 4 The obtained k obs values were fitted against the inhibito concentrations to the hyperbolic equation 2, providing the k inact and K iapp values. The latter were corrected to zero substrate concentration by the term (1+[S]/K m) in equation 3. The K m value used to correct K iapp values was determined to 0.9 μM. 5 K i and k inac values were calculated by nonlinear regression analyses using GraFit.6 The second-order rate constants k 2nd = k inact/K i were easily determined from the […]
Chart S1. Equations 1, 2, and 3.
Enzyme assays towards hCatL.
The biological evaluation towards hCatL was performed following the procedure reported in the literature.7 Enzyme assays towards SARS-CoV-2 Mpro.
The biological activity of novel Michael acceptors 1-9 against SARS-CoV-2 M pro was carried-out following the previously described protocol.8
Antitrypanosomal activity.
(1 picture or pasted object on this page, not shown here)

T1 sequence (Q95PM0 entry or part of it): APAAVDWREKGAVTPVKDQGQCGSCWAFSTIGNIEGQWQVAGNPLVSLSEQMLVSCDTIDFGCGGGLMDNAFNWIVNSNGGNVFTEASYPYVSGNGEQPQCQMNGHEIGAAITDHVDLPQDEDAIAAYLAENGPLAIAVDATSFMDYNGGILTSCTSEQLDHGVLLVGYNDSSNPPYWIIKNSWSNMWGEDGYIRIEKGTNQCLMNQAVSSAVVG
human cathepsin L (hCatL), sequence (P07711 114-333): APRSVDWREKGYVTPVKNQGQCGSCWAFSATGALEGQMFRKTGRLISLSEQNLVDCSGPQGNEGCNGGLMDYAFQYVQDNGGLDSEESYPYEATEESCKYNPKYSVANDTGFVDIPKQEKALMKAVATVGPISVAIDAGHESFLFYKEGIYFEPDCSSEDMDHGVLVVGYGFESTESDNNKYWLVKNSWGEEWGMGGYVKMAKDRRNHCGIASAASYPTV

Regarding `CC(C)C[C@H](NC(=O)[C@H]1O[C@@H]1C(=O)O)C(=O)NCCCCN=C(N)N` [E64], in assay [1], the Ki was 35 ± 5 nM, the “Rhodesain k2nd” value is given as 261 ± 27 ×10^3 M^–1 min^–1 and the Rhodesain kinact is reported as 0.0090 ± 0.0004 min^–1.
`CN1CCN(C(=O)N[C@@H](Cc2ccccc2)C(=O)N[C@H](/C=C/S(=O)(=O)c2ccccc2)CCc2ccccc2)CC1` [K11777]: in assay [1], the “RD, k2nd” value was 150000 M⁻¹ s⁻¹ and the “Rhodesain k2nd” value is given as 9000 ×10^3 M^–1 min^–1. Besides, in assay [2], the “BSF of T.b., ED50” value is 900 nM.
Turning to `CC(=O)/C=C/[C@H](CCc1ccccc1)NC(=O)[C@H](Cc1ccccc1)NC(=O)c1ccc(F)cc1` [PS-1], the “RD, k2nd” value in assay [1] is 1.47e+07 M⁻¹ s⁻¹. Also, in assay [3], the EC50 – broadly, the concentration needed to bring the measured effect to its halfway point – is 3600 nM.
Regarding `CC(=O)/C=C/[C@H](CCc1ccccc1)NC(=O)[C@H](Cc1ccccc1)NC(=O)OCc1ccccc1` [RK-52], the “RD, k2nd” value in assay [1] is 1.12e+06 M⁻¹ s⁻¹. Moreover, the EC50 in assay [3] is 2970 nM.
Regarding `CC(=O)/C=C/[C@H](CCc1ccccc1)NC(=O)[C@H](Cc1ccccc1)NC(=O)Nc1ccccc1` [compound 1, (S)-N-((S,E)-6-Oxo-1-phenylhept-4-en-3-yl)-3-phenyl-2-(3-phenylureido)propenamide], the Ki in assay [4] amounted to 0.15 ± 0.06 nM. For the same molecule, the 50% effective concentration (EC50) in assay [5] came out at 19800 ± 2670 nM. For the same molecule, in assay [6], the Ki is 0.11 ± 0.01 nM; the “hCatL k2nd” value is listed as 5920 ± 150 x 103M-1 min-1; the kinact – broadly, the maximal first-order rate at which the target is inactivated – is 1e-05 s⁻¹. In addition, the inhibition (usually how much of the control response was suppressed) at 100 µM in assay [7] was 33 to 66%.
As to `COc1ccc(NC(=O)N[C@@H](Cc2ccccc2)C(=O)N[C@H](/C=C/C(C)=O)CCc2ccccc2)cc1` [compound 2, (S)-2-(3-(4-Methoxyphenyl)ureido)-N-((S,E)-6-oxo-1-phenylhept-4-en-3-yl)-3-phenylpropanamide], in assay [4], the Ki is 1.05 ± 0.33 nM and the “Rhodesain k2nd” value is reported as 5820 ± 490 ×10^3 M^–1 min^–1. This molecule also yielded a 50% effective concentration (EC50) in assay [5] of 2080 ± 220 nM. Further, in assay [6], the Ki was found to be 81.9 ± 1.06 nM, the “hCatL k2nd” value is listed as 9 ± 1 x 103M-1 min-1 and the kinact was 1.33e-05 s⁻¹. Also, the inhibition at 100 µM in assay [7] lay within 33 to 66%.
In assay [4], `CC(=O)/C=C/[C@H](CCc1ccccc1)NC(=O)[C@H](Cc1ccccc1)NC(=O)Nc1ccc(C)cc1` [compound 3, (S)-N-((S,E)-6-Oxo-1-phenylhept-4-en-3-yl)-3-phenyl-2-(3-(p-tolyl)ureido)propanamide] returned a Ki of 0.51 ± 0.38 nM. In assay [5], this molecule came in with a 50% effective concentration (EC50) of 1390 ± 230 nM. Also, in assay [6], the Ki was 1.32 ± 0.25 nM, the “hCatL k2nd” value is 360 ± 106 x 103M-1 min-1 and the inactivation rate constant (kinact) is 7.5e-06 s⁻¹. For the same molecule, the inhibition at 100 µM in assay [7] lay within 33 to 66%.
For the molecule `CC(=O)/C=C/[C@H](CCc1ccccc1)NC(=O)[C@H](Cc1ccccc1)NC(=O)Nc1ccc(F)cc1` [compound 4, (S)-2-(3-(4-Fluorophenyl)ureido)-N-((S,E)-6-oxo-1-phenylhept-4-en-3-yl)-3-phenylpropanamide], in assay [4], the Ki came to 0.85 ± 0.07 nM and the “Rhodesain k2nd” value was 2480 ± 50 ×10^3 M^–1 min^–1. Besides, a half-maximal effect in assay [5] (EC50) was put at 1510 ± 80 nM. Also, in assay [6], the Ki was 0.1 ± 0.01 nM, the “hCatL k2nd” value is 5880 ± 120 x 103M-1 min-1 and the kinact is 1e-05 s⁻¹. Moreover, the inhibition at 100 µM in assay [7] was 33 to 66%.
With `CC(=O)/C=C/[C@H](CCc1ccccc1)NC(=O)[C@H](Cc1ccccc1)NC(=O)Nc1c(F)cccc1F` [compound 5, (S)-2-(3-(2,6-Difluorophenyl)ureido)-N-((S,E)-6-oxo-1-phenylhept-4-en-3-yl)-3-phenylpropanamide], in assay [4], the Ki worked out at 1.13 ± 0.26 nM and the “Rhodesain k2nd” value is on record as 2030 ± 230 ×10^3 M^–1 min^–1. For the same molecule, in assay [5], the concentration giving a half-maximal response (EC50) was 3200 ± 280 nM. Moreover, in assay [6], the Ki is 2.14 ± 0.25 nM, the “hCatL k2nd” value was 326 ± 8 x 103M-1 min-1 and the inactivation rate constant (kinact) was 1.17e-05 s⁻¹. The inhibition at 100 µM in assay [7] was 33 to 66%.
Take `CC(=O)/C=C/[C@H](CCc1ccccc1)NC(=O)[C@H](Cc1ccccc1)NC(=O)Nc1ccc(Cl)cc1` [compound 6, (S)-2-(3-(4-Chlorophenyl)ureido)-N-((S,E)-6-oxo-1-phenylhept-4-en-3-yl)-3-Phenylpropanamide]: in assay [4], the Ki was determined as 0.78 ± 0.13 nM and the “Rhodesain k2nd” value is listed as 2990 ± 300 ×10^3 M^–1 min^–1. Also, the concentration giving a half-maximal response (EC50) in assay [5] was determined as 1500 ± 240 nM. Further, in assay [6], the Ki is 3.11 ± 1.63 nM, the “hCatL k2nd” value is reported as 321 ± 152 x 103M-1 min-1 and the maximal inactivation rate constant (kinact) is 1.25e-05 s⁻¹. For the same molecule, the inhibition at 100 µM in assay [7] is 33 to 66%.
As for `CC(=O)/C=C/[C@H](CCc1ccccc1)NC(=O)[C@H](Cc1ccccc1)NC(=O)Nc1ccc(Cl)cc1C` [compound 7, (S)-2-(3-(4-Chloro-2-methylphenyl)ureido)-N-((S,E)-6-oxo-1-phenylhept-4-en-3-yl)-3-phenylpropanamide], the Ki in assay [4] turned out to be 0.51 ± 0.36 nM. For the same molecule, the EC50 in assay [5] amounted to 1650 ± 70 nM. In assay [6], the Ki came out at 0.18 ± 0.03 nM, the “hCatL k2nd” value was 3110 ± 160 x 103M-1 min-1 and the inactivation rate constant (kinact) is 9.17e-06 s⁻¹. Also, the inhibition at 100 µM in assay [7] was 33 to 66%.
With `CC(=O)/C=C/[C@H](CCc1ccccc1)NC(=O)[C@H](Cc1ccccc1)NC(=O)Nc1ccc(Cl)cc1C(F)(F)F` [compound 8, (S)-2-(3-(4-Chloro-2-(trifluoromethyl)phenyl)ureido)-N-((S,E)-6-oxo-1-phenylhept-4-en-3-yl)-3-phenylpropanamide], in assay [4], the Ki was found to be 1.04 ± 0.31 nM and the “Rhodesain k2nd” value is reported as 6050 ± 790 ×10^3 M^–1 min^–1. In assay [5], a half-maximal effect (EC50) was put at 1280 ± 40 nM. In assay [6], the Ki amounted to 2.27 ± 0.43 nM, the “hCatL k2nd” value is recorded as 256 ± 71 x 103M-1 min-1 and the inactivation rate constant (kinact) was 9.17e-06 s⁻¹. In addition, the inhibition at 100 µM in assay [7] lay in the range of 33 to 66%.
Consider `CC(=O)/C=C/[C@H](CCc1ccccc1)NC(=O)[C@H](Cc1ccccc1)NC(=O)Nc1cccc2ccccc12` [compound 9, (S)-2-(3-(Naphthalen-1-yl)ureido)-N-((S,E)-6-oxo-1-phenylhept-4-en-3-yl)-3-phenylpropanamide], for which, in assay [4], the Ki worked out at 2.51 ± 1.51 nM and the “Rhodesain k2nd” value is reported as 4170 ± 1360 ×10^3 M^–1 min^–1. The molecule also showed an EC50 in assay [5] of 2280 ± 270 nM. In assay [6], the Ki came out at 0.051 ± 0.001 nM, the “hCatL k2nd” value is given as 12820 ± 1050 x 103M-1 min-1 and the maximal inactivation rate constant (kinact) is 1.08e-05 s⁻¹. For the same molecule, the inhibition at 100 µM in assay [7] fell in the range of 33 to 66%.
In assay [4], `CC(=O)/C=C/[C@H](CCc1ccccc1)NC(=O)[C@H](CC(C)C)NC(=O)Nc1ccc(C)cc1` [compound 25, (S)-4-Methyl-N-((S,E)-6-oxo-1-phenylhept-4-en-3-yl)-2-(3-(p-tolyl)ureido)pentanamide] registered a Ki of 0.42 ± 0.08 nM. For the same molecule, the concentration giving a half-maximal response (EC50) in assay [5] worked out at 1540 ± 90 nM. Besides, in assay [6], the Ki turned out to be 0.64 ± 0.02 nM, the “hCatL k2nd” value is recorded as 2120 ± 6 x 103M-1 min-1 and the kinact was 2.25e-05 s⁻¹.
For `CC(=O)/C=C/[C@H](CCc1ccccc1)NC(=O)[C@H](CC(C)C)NC(=O)Nc1ccc(Cl)cc1C` [compound 26, (S)-2-(3-(4-chloro-2-methylphenyl)ureido)-4-methyl-N-((S,E)-6-oxo-1-phenylhept-4-en-3-yl)pentanamide], in that order: 0.93 ± 0.52 nM, 1120 ± 50 nM, 0.07 ± 0.03 nM, 14240 ± 5410 x 103M-1 min-1 and 1.42e-05 s⁻¹.
